target: T1, human mGluR2 (Homo sapiens, UniProt Q14416); assay: mGluR2 potentiator assays described herein (FLIPR calcium mobilization in HEK 293 cells expressing chimeric mGluR2/CaR, or [35S]-GTPγS binding with CHO membranes); type: cell-based; conditions: active in the assays described herein; which assay (FLIPR or GTPγS) is not stated
T1 construct: fused on or other part: If FLIPR: the intracellular domain of the human calcium receptor (CASR, P41180) in place of mGluR2's own, and the promiscuous chimeric G protein Gaqi5 fused on; If GTPgammaS: nothing
T1 sequence (Q14416 19-819 limits assumed): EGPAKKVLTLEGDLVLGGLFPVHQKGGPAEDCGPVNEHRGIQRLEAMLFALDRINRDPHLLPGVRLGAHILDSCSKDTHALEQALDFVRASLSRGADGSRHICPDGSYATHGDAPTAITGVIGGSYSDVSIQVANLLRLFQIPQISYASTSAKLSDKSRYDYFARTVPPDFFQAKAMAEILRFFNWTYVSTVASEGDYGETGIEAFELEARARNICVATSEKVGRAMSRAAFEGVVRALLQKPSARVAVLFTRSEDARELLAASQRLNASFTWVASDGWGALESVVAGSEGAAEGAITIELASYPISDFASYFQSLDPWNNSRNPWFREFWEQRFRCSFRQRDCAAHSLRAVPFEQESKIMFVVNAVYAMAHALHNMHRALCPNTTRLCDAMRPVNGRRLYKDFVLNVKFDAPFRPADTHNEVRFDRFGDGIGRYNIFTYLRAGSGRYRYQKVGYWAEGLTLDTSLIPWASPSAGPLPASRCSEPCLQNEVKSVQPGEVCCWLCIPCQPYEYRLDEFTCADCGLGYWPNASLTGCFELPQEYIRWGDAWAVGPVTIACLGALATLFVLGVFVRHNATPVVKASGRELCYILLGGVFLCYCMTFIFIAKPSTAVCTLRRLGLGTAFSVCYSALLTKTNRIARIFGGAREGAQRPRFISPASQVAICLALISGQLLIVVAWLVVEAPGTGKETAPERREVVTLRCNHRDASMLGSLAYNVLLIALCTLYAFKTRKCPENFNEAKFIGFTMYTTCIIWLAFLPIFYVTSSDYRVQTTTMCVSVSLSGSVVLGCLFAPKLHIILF
Text: The pharmacological properties of the compounds of the invention can be analyzed using standard assays for functional activity. Examples of glutamate receptor assays are well known in the art as described in, for example, Aramori et al., 1992, Neuron, 8:757; Tanabe et al., 1992, Neuron, 8:169; Miller et al., 1995, J. Neuroscience, 15:6103; Balazs, et al., 1997, J. Neurochemistry, 1997,69:151. The methodology described in these publications is incorporated herein by reference. Conveniently, the compounds of the invention can be studied by means of an assay that measures the mobilization of intracellular calcium, [Ca^2+]i in cells expressing mGluR2.
Fluorometric Imaging Plate Reader (FLIPR) analysis was used to detect allosteric activators of mGluR2 via calcium mobilization. A clonal HEK 293 cell line expressing a chimeric mGluR2/CaR construct comprising the extracellular and transmembrane domains of human mGluR2 and the intracellular domain of the human calcium receptor, fused to the promiscuous chimeric protein Gaqi5 was used. […] At 24-hours prior to analysis, the cells were trypsinized and plated in DMEM at 100,000 cells/well in black sided, clear-bottom, collagen I coated, 96-well plates. The plates were incubated under 5% CO2 at 37° C. overnight. Cells were loaded with 6 μM fluo-3 acetoxymethylester (Molecular Probes, Eugene Oreg.) for 60 min. at room temperature. All assays were performed in a buffer containing 126 mM NaCl, 5 mM KCl, 1 mM MgCl2, 1 mM CaCl2, 20 mM Hepes, 0.06 μM DCG-IV (a Group II mGluR selective agonist), supplemented with 1.0 mg/ml D-glucose and 1.0 mg/ml BSA fraction IV (pH 7.4).
FLIPR experiments were done using a laser setting of 0.8 W and a 0.4 second CCD camera shutter speed. Extracellular fluo-3 was washed off and cells were maintained in 160 μL of buffer and placed in the FLIPR. An addition of test compound (0.01 μM to 30 μM in duplicate) was made after 10 seconds of baseline fluorescent readings were recorded on FLIPR. Fluorescent signals were then recorded for an additional 75 seconds at which point a second addition of DCG-IV (0.2 μM) was made and fluorescent signals were recorded for an additional 65 seconds. Fluorescent signals were measured as the peak height of the response within the sample period. Data was analyzed using Assay Explorer, and EC50 and Emax values (relative to maximum DCG-IV effect) were calculated using a four parameter logistic equation.
A [^35S]-GTPγS binding assay was used to functionally assay mGluR2 receptor activation. The allosteric activator activity of compounds at the human mGluR2 receptor was measured using a [^35S]-GTPγS binding assay with membranes prepared from CHO cells which stably express the human mGluR2. The assay is based upon the principle that agonists bind to G-protein coupled receptors to stimulate GDP-GTP exchange at the G-protein. Since [^35S]-GTPγS is a non-hydrolyzable GTP analog, it can be used to provide an index of GDP-GTP exchange and, thus, receptor activation. The GTPγS binding assay therefore provides a quantitative measure of receptor activation.
Membranes were prepared from CHO cells stably transfected with human mGluR2. […] The amount of radioactivity bound was determined by counting plates on the Packard TopCount. […]

Row | Structure (SMILES) | EC50 [nM]
1 | CC1CCc2cc(F)cc3nc(CN4CCC(Oc5ccccc5Cl)CC4)n1c23 (centres unmarked) [Example 26.55, 8-fluoro-4-methyl-2-[4-(2-chlorophenoxy)-piperidin-1-ylmethyl]-5,6-dihydro-4H-imidazo[4,5,1-ij]quinoline] | 370
2 | CC1CCc2cc(F)cc3nc(CN4CCN(c5ccc(F)cc5)CC4)n1c23 (centres unmarked) [Example 26.56, 8-fluoro-4-methyl-2-{[4(4-fluorophenyl)piperizin-1-yl]methyl}-5,6-dihydro-4H-imidazo[4,5,1-ij]quinoline] | 1580
3 | CC1CCc2cc(F)cc3nc(CN4CC=C(c5ccc(OC(F)(F)F)cc5)CC4)n1c23 (centres unmarked) [Example 26.65, 8-fluoro-4-methyl-2-{[4-(4-trifluoromethoxyphenyl)-3,6-dihydropyridin-1(2H)-yl]methyl}-5,6-dihydro-4H-imidazo[4,5,1-ij]quinoline] | 80

Further lines, results first:

Row | EC50 [nM] | Structure (SMILES)
4 | 230 | Fc1ccc(C2CCN(Cc3nc4cccc5c4n3CCO5)CC2)cc1 [Example 26.69]
5 | 1110 | O=C1CCN2C(CN3CCC(c4ccc(F)cc4)CC3)=NC3C=C(F)C=C1C32 (centres unmarked) [Example 28.1, 8-Fluoro-2-[4-(4-fluoro-phenyl)-piperidin-1-ylmethyl]-4,5,9a,9b-tetrahydroimidazo[4,5,1-ij]quinolin-6-one]

Source: patent US20070032469A1, “Tricyclic benzimidazoles and their use as metabotropic glutamate receptor modulators” (AstraZeneca AB, priority 2005, published 2007)
